Reference: ChEMBL document CHEMBL3352342, “Nucleotide-binding oligomerization domain (NOD) inhibitors: a rational approach toward inhibition of NOD signaling pathway” (J Med Chem, 2014)

Experiments:
[1] = biological target: Nucleotide-binding oligomerization domain-containing protein 2 (Homo sapiens, UniProt Q9HC29); test: Inhibition of NOD2 (unknown origin) expressed in HEK293T cells coexpressing NF-kappaB driven luciferase reporter gene by HTS primary assay; assay type: cell-based, HEK-293T
[2] = biological target: T1, Nucleotide-binding oligomerization domain-containing protein 1 (Homo sapiens, UniProt Q9Y239); test: Inhibition of NOD1 (unknown origin) expressed in HEK293T cells coexpressing NF-kappaB driven luciferase reporter gene by HTS primary assay; assay type: cell-based, HEK-293T
T1 sequence (Q9Y239 whole entry): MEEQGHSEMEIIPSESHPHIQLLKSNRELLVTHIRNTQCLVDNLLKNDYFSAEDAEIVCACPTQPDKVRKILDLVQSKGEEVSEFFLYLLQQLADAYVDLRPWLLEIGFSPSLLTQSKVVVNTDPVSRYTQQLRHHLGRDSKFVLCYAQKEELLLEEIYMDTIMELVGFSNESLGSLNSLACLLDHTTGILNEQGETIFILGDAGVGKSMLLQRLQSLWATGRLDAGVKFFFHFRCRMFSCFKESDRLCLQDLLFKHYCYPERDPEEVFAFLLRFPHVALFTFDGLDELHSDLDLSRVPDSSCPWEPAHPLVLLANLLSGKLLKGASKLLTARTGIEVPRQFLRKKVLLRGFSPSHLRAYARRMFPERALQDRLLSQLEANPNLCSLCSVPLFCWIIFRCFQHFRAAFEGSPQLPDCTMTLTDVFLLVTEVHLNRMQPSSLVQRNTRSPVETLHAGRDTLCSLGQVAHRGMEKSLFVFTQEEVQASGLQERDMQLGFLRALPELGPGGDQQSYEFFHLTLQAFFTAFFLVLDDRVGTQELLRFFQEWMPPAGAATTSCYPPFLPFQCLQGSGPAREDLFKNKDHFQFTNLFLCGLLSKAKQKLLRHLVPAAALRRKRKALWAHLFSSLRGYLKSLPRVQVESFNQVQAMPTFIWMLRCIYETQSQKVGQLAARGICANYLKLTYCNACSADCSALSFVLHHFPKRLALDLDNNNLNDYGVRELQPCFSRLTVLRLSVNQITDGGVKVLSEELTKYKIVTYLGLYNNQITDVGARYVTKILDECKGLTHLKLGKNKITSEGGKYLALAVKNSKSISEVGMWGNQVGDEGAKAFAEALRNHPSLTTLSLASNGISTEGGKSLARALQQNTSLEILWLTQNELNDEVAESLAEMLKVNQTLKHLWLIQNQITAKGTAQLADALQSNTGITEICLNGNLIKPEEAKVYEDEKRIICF

Nucleotide-binding oligomerization domain-containing protein 2, sequence (Q9HC29 whole entry, the tested form may be a part): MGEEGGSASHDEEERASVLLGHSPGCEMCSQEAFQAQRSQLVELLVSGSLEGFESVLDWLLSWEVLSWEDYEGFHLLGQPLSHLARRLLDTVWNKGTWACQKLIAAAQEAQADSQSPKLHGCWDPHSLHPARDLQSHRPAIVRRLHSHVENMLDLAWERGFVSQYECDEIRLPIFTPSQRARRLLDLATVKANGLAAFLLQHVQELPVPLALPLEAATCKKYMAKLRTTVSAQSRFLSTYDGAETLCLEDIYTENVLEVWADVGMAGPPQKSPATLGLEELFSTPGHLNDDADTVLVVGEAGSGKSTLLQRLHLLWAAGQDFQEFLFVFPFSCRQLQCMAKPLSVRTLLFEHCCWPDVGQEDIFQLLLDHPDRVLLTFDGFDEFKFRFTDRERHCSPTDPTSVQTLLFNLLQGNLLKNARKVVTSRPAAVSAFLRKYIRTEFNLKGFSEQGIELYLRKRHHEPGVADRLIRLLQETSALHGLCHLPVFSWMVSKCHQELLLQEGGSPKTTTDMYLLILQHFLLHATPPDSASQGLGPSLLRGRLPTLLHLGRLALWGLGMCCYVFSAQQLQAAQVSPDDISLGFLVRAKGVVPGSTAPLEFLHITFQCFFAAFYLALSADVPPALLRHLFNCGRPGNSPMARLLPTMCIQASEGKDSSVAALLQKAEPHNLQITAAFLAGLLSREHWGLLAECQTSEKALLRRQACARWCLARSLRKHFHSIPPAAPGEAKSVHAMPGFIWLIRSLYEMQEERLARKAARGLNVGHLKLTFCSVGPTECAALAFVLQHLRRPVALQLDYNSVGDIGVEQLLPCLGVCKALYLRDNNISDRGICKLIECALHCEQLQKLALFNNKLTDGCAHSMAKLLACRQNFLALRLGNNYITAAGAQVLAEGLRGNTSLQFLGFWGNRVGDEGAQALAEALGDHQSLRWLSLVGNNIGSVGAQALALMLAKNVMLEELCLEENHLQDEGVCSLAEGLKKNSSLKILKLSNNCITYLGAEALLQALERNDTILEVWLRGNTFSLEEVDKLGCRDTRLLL

Structure (SMILES) | IC50 [1] [nM] | IC50 [2] [nM]
Cc1ccc(S(=O)(=O)n2c(N)nc3ccccc32)cc1 | > 20000 | –
C/C=C/Cn1c(SCCCc2ccccc2)nc2c1c(=O)[nH]c(=O)n2C | 12700 | –
CCCCCn1c(SCCc2ccccc2)nc2c1c(=O)[nH]c(=O)n2C | > 20000 | –
O=C(Cn1c(CCNC(=O)c2ccc3ccccc3c2)nc2ccccc21)Nc1ccc2c(c1)CCC2 | – | 3400
CN(CCc1nc2ccccc2n1CC(=O)Nc1ccc2c(c1)CCC2)C(=O)c1ccc2ccccc2c1 | – | 200

The remaining lines, values ahead:

IC50 [1] [nM] | IC50 [2] [nM] | Structure (SMILES)
– | 3300 | O=C(Cn1c(CCNC(=O)c2ccccc2)nc2ccccc21)Nc1ccc2c(c1)CCC2
– | 800 | CC(C)c1cccc(NC(=O)Cn2c(CCNC(=O)c3ccccc3)nc3ccccc32)c1
– | 1600 | O=C(Cn1c(CCNC(=O)c2ccccc2)nc2ccccc21)Nc1ccc2ccccc2c1
– | 1300 | O=C(Cn1c(CCNC(=O)c2ccccc2)nc2cc(Cl)ccc21)Nc1ccc2c(c1)CCC2
– | 400 | CN(CCc1nc2ccccc2n1CC(=O)Nc1ccc2c(c1)CCC2)C(=O)c1ccccc1
